Laboratory results reported in US20240277874A1, “FLUORESCENCE-MAGNETIC RESONANCE DUAL-MODALITY CONTRAST AGENT, PREPARATION METHOD THEREFOR AND USE THEREOF” (HAINAN POLY PHARMACEUTICAL CO., LTD., priority 2021, published 2024).
Where two headings read alike, the source gives them in different places.

Assays:
[1] = system: ICR female mice; details: value marked * with footnote not given; 60 is not among the tested doses; cited from earlier work
[2] = normal people, 20 minutes after intravenous injection; cited from earlier work
[3] = Stability of the aqueous contrast agent solution at room temperature, relative content by HPLC; assay type: physicochemical; details: aqueous solution 0.1 mg/mL
Experimental: The aqueous solution of the contrast agent (0.1 mg/mL) was left at room temperature and its stability was measured by calibrating its relative content by the HPLC method at different time points, and the stability of the contrast agent is shown in Table 4.

[4] = system: liver and kidney of ICR mice; test: Fluorescence imaging of removed livers and kidneys after magnetic resonance imaging; assay type: in vivo; details: 6 hours after administration, FIG. 1C
Experimental: (§1) • 1. IR-820 (new indocyanine green) and 3,6,9-trioxaundecamethylenediamine (1:1-1:5 eq.) were added to the DMSO solution. And then the triethylamine as the deacid reagent was added to the mixture. The mixture reacted at 20-80° C. for 2 h. The desired product B01 was obtained after precipitation. • 2. B01 and DOTA-NHS ([…] is N-hydroxysuccinimide) (1:1-1:3 eq.) were dissolved in DMSO solution, and 1-20 equivalents of triethylamine was added to the mixture. The mixture reacted at 10-40° C. for 24 h. The desired product B02 was obtained after precipitation. • 3. B02 was reacted with 0.5-2 equivalents of gadolinium chloride hydrate in DMSO at 10-50° C. for 10 h-50 h, and the desired product PL-001 was obtained after precipitation, yield of 83%, purity of 91%. • 4. The final product was dissolved in pure water to create a solution. The product was administered to ICR mice by tail intravenous injection at doses of 5 mg/kg and 30 mg/kg, respectively. Magnetic resonance T1-enhanced imaging (SE sequence) was performed on the liver and kidney of the mice before and after the administration of the product. After the magnetic resonance imaging was completed, the livers and kidneys were removed for fluorescence imaging. […] From the figure, it can be seen that the magnetic resonance enhancement and fluorescence imaging results of the liver and kidney were basically consistent.

[5] = system: liver and kidney of ICR mice; test: Magnetic resonance T1-enhanced imaging (SE sequence) of liver and kidney after tail intravenous injection; assay type: in vivo; details: tail iv 5 mg/kg and 30 mg/kg, FIG. 1A
Experimental: as §1

[6] = system: ICR female mice; details: mouse, in vivo, iv
Source text: The maximum tolerated dose (MTD) of the contrast agent was preliminarily determined by administration to mice by tail intravenous injection.

[7] = Longitudinal relaxation rate (r1), 0.35T nuclear magnetic resonance imaging system, IR sequence; assay type: physicochemical; details: for r1 in BSA solution(1%): bovine serum protein solution (1%, w/w); for r1 in Water: pure water
Experimental: The longitudinal relaxation rate (r1) of the contrast agent was determined in a 0.35T small nuclear magnetic resonance imaging system using an IR […] sequence. The relaxation rates of the contrast agent in pure water and in bovine serum protein solution (1%, w/w) in different solvents are shown in Table 3 below.

[8] = system: major organs of liver in situ tumor mice; test: Tissue fluorescence of liver in situ tumor mice, small animal live imaging analyzer; assay type: in vivo; details: organs removed after magnetic resonance imaging, FIG. 4
Source text: Liver in situ tumor mice tissue fluorescence was observed by a small animal live imaging analyzer (Perkin Elmer). After magnetic resonance imaging, the major organs of the mice were removed and observed by live imaging, and the results are shown in FIG. 4.

[9] = system: H22 liver in situ tumors in Balb/c mice; test: Magnetic resonance T1-enhanced imaging of liver in situ tumors, GE 3.0T system; assay type: in vivo; details: Balb/c mice with H22 liver in situ tumor, 1 mg/mL solution, 5 mL/kg tail iv, FIG. 3
Experimental: Magnetic resonance imaging of liver in situ tumors with a contrast agent was performed using a GE 3.0T magnetic resonance imaging system. H22 cells were inoculated in Balb/c mice through liver in-situ injection, and liver conditions were observed through magnetic resonance. After the tumor was formed, 1 mg/mL contrast agent solution (5 mL/kg) was injected through the tail intravenous, and the liver was subjected to magnetic resonance T1-enhanced imaging at different time points after the administration of the agent.

[10] = system: murine hepatocellular carcinoma cells H22; test: Cell entry rate of the contrast agent by flow cytometry; assay type: cell-based; details: compared among PL-002, PL-003, PL-004 and PL-006, FIG. 2
Experimental: The cell entry rate of the contrast agent at the cell level was determined by flow cytometers. Logarithmically grown murine hepatocellular carcinoma cells H22 were collected and spread evenly in 12-well plates, with an approximate cell number of 1.5×10^5 per well.

CC1(C)C(/C=C/C=C/C=C/C=C2\N(CCCCS(=O)(=O)O)c3ccc4ccccc4c3C2(C)C)=[N+](CCCCS(=O)(=O)[O-])c2ccc3ccccc3c21 [ICG, Indocyanine green]
MTD [1]: 60* mg/kg
eliminated from the blood [2]: about 97%

CC1(C)C(=CC=C2CCCC(C=CC3=[N+](CCCCS(=O)(=O)O)c4ccc5ccccc5c4C3(C)C)=C2NCCCOCCOCCOCCCNC(=O)CN2CCN(CC(=O)[O-])CCN(CC(=O)[O-])CCN(CC(=O)[O-])CC2)N(CCCCS(=O)(=O)O)c2ccc3ccccc3c21.[Gd+3] [PL-001]
decomposition rate % ([3]; 0 h): 0%
decomposition rate % ([3]; 2 h): 5.9%
decomposition rate % ([3]; 24 h): 40.0%
decomposition rate % ([3]; 48 h): 65.4%
fluorescence imaging of liver and kidney [4]: significant fluorescence of the liver and kidney
magnetic resonance T1-enhanced imaging of liver and kidney [5]: significant enhancement of liver and kidney
MTD [6]: 75 mg/kg

CC1(C)C(/C=C/C2=C(Oc3ccc(CCC(=O)NCCOCCOCCOCCNC(=O)CN4CCN(CC(=O)[O-])CCN(CC(=O)[O-])CCN(CC(=O)[O-])CC4)cc3)C(=C/C=C3/N(CCCCS(=O)(=O)O)c4ccc5ccccc5c4C3(C)C)/CCC2)=[N+](CCCCS(=O)(=O)O)c2ccc3ccccc3c21.[Gd+3] [PL-002]
decomposition rate % ([3]; 0 h): 0%
decomposition rate % ([3]; 2 h): <LOQ
decomposition rate % ([3]; 24 h): <LOQ
decomposition rate % ([3]; 48 h): <LOQ
r1 in BSA solution(1%) [7]: 16.2 mM⁻¹ s⁻¹
r1 in Water [7]: 11.8 mM⁻¹ s⁻¹
MTD [6]: 125 mg/kg

CC1(C)C(/C=C/C2=C(Oc3ccc(CCC(=O)NCCCCCCCCCCNC(=O)CN4CCN(CC(=O)[O-])CCN(CC(=O)[O-])CCN(CC(=O)[O-])CC4)cc3)C(=C/C=C3/N(CCCCS(=O)(=O)O)c4ccc5ccccc5c4C3(C)C)/CCC2)=[N+](CCCCS(=O)(=O)O)c2ccc3ccccc3c21.[Gd+3] [PL-003]
decomposition rate % ([3]; 0 h): 0%
decomposition rate % ([3]; 2 h): <LOQ
decomposition rate % ([3]; 24 h): <LOQ
decomposition rate % ([3]; 48 h): <LOQ
r1 in BSA solution(1%) [7]: 18.9 mM⁻¹ s⁻¹
r1 in Water [7]: 15.4 mM⁻¹ s⁻¹
distinction of tumor from normal tissue and fluorescence intensity [8]: tumor is distinguished from the normal tissue and has better fluorescence intensity
magnetic resonance T1 enhancement of the tumor site [9]: better enhancement effect
cell entry rate [10]: fastest cellular entry
MTD [6]: 150 mg/kg

CC1(C)C(/C=C/C2=C(Oc3ccc(CCC(=O)NCCOCCOCCNC(=O)CN4CCN(CC(=O)[O-])CCN(CC(=O)[O-])CCN(CC(=O)[O-])CC4)cc3)C(=C/C=C3/N(CCCCS(=O)(=O)O)c4ccc5ccccc5c4C3(C)C)/CCC2)=[N+](CCCCS(=O)(=O)O)c2ccc3ccccc3c21.[Gd+3] [PL-004]
decomposition rate % ([3]; 0 h): 0%
decomposition rate % ([3]; 2 h): <LOQ
decomposition rate % ([3]; 24 h): <LOQ
decomposition rate % ([3]; 48 h): <LOQ
r1 in BSA solution(1%) [7]: 17.6 mM⁻¹ s⁻¹
r1 in Water [7]: 14.7 mM⁻¹ s⁻¹
MTD [6]: 125 mg/kg
